Source: patent US10005773B2, “1-(4-pyrimidinyl)-1H-pyrrolo[3,2-c]pyridine derivatives as NIK inhibitors” (Janssen Pharmaceutica NV, priority 2013, dated 2018)

How the values were obtained:
[1] = tested on: LP-1 cells; experiment: Biological Assay C: antiproliferative activity on LP-1 cells (CellTiter-Glo); assay type: cell-based; conditions: Homo sapiens, 72 hr treatment
Protocol: (§1) Determination of Antiproliferative Activity on LP-1, L-363 and JJN-3 Cells
(§2) All compounds tested were dissolved in DMSO and further dilutions were made in culture medium. Final DMSO concentration was 0.3% (v/v) in cell proliferation assays. Viability was assessed using CellTiter-Glo cell viability assay kit (Promega). The human LP-1, L-363 and JJN-3 cells (DSMZ) were cultured in RPMI 1640 medium supplemented with 2 mM L-glutamine, and 10% fetal calf serum (PAA). Cells were routinely kept as suspension cells at 37° C. in a humidified 5% CO2 atmosphere. Cells were passaged at a seeding density of 0.2×10^6/ml twice a week. Cells were seeded in black tissue culture treated 96-well plates (Perkin Elmer). Densities used for plating ranged from 2,000 to 6,000 cells per well in a total volume of 75 μl medium. After twenty four hours, drugs and/or solvents were added (25 μl) to a final volume of 100 μl. Following 72 hr of treatment plates were removed from the incubator and allowed to equilibrate to room temperature for approx 10 min. 100 μl CellTiter-Glo reagent was added to each well that was then covered (Perkin Elmer Topseal) and shaken on plate shaker for 10 min. Luminescence was measured on a HTS Topcount (Perkin Elmer). Within an experiment, the results for each treatment were the mean of 2 replicate wells. For initial screening purposes, compounds were tested using a 9 point dilution curve (serial 1:3 dilutions). For each experiment, controls (containing no drug) and a blank incubation (containing cells read at the time of compound addition) were run in parallel. The blank value was subtracted from all control and sample values. For each sample, the mean value for cell growth (in relative light units) was expressed as a percentage of the mean value for cell growth of the control.

[2] = tested on: L-363 cells; experiment: Biological Assay C: antiproliferative activity on L-363 cells (CellTiter-Glo); assay type: cell-based; conditions: Homo sapiens, 72 hr treatment
Protocol: as §1, §2

[3] = target: T1, Recombinant Human NF-kappaB-Inducing Kinase (NIK/MAP3K14) (Homo sapiens, UniProt Q99558); experiment: Biological Assay A: inhibition of recombinant human NIK/MAP3K14 activity (MSD, MBP substrate); conditions: 25 μM ATP, 10 nM NIK/MAP3K14, 1 h at 25° C.; averaged over all batches; read-out: Biochemical (MSD MBP) IC50
Protocol: Inhibition of Recombinant Human NF-kappaB-Inducing Kinase (NIKIMAP3K14) Activity
Assay buffer was 50 mM Tris pH 7.5 containing 1 mM ethylene glycol tetraacetic acid (EGTA), 1 mM dithiothreitol (DTT), 0.1 mM Na3VO4, 5 mM MgCl2, 0.01% Tween® 20. Assays were carried out in 384 well Mesoscale high binding plates which had been coated with myelin basic protein (MBP) and blocked with bovine serum albumin to prevent non-specific protein binding. All compounds tested were dissolved in dimethyl sulfoxide (DMSO) and further dilutions were made in assay buffer. Final DMSO concentration was 1% (v/v) in assays. Incubations consisted of compound (1% DMSO in control and blank wells), 25 μM Adenosine-5′-triphosphate (ATP), and 10 nM NIK/MAP3K14 substituting enzyme with buffer in the blank wells. Incubations were carried out for 1 h at 25° C. and were followed by washing and sequential incubation with rabbit anti-phospho-MBP and anti-rabbit Ig Sulfotag antibody before reading bound Sulfotag on a Mesoscale Discovery. Signal obtained in the wells containing blank samples was subtracted from all other wells and IC50's were determined by fitting a sigmoidal curve to % inhibition of control versus Log10 compound concentration.

[4] = tested on: P-IKKα levels in L363 cells; experiment: Biological Assay B: effect of compounds on P-IKKα levels in L363 cells; assay type: cell-based; conditions: Homo sapiens, L-363, BAFF stimulated, 2 hr treatment, averaged over all batches, read-out: IKKα Cellular IC50
Protocol: Effect of Compounds on P-IKKα Levels in L363 Cells
All compounds tested were dissolved in DMSO and further dilutions were made in culture medium. Final DMSO concentration was 1% (v/v) in cell assays. The human L363 cells (ATCC) were cultured in RPMI 1640 medium supplemented with GlutaMax and 10% fetal calf serum (PAA). Cells were routinely maintained at densities of 0.2×10^6 cells per ml-1×10^6 cells per ml at 37° C. in a humidified 5% CO2 atmosphere. Cells were passaged twice a week splitting back to obtain the low density. Cells were seeded in 96 well plates (Nunc 167008) at 2×10^6 per ml media in a volume of 75 μl per well plus 25 μl 1 μg/ml recombinant human B-cell activating factor (BAFF/BLyS/TNFSF13B). Seeded cells were incubated at 37° C. in a humidified 5% CO2 atmosphere for 24 hr. Drugs and/or solvents were added (20 μl) to a final volume of 120 μl. Following 2 hr treatment plates were removed from the incubator and cell lysis was achieved by the addition of 30 μl 5× lysis buffer followed by shaking on a plate shaker at 4° C. for 10 min. At the end of this incubation lysed cells were centrifuged at 800×g for 20 min at 4° C. and the lysate was assessed for P-IKKα levels by sandwich immuno-assay carried out in anti-rabbit antibody coated Mesoscale plates. Within an experiment, the results for each treatment were the mean of 2 replicate wells. For initial screening purposes, compounds were tested using an 8 point dilution curve (serial 1:3 dilutions). For each experiment, controls (containing MG132 and BAFF but no test drug) and a blank incubation (containing MG132 and BAFF and 10 μM ADS125117, a test concentration known to give full inhibition) were run in parallel. The blank incubation value was subtracted from all control and sample values. To determine the IC50 a sigmoidal curve was fitted to the plot of % inhibition of control P-IKKα levels versus Log10 compound concentration.

[5] = tested on: JJN-3 cells; experiment: Biological Assay C: antiproliferative activity on JJN-3 cells (CellTiter-Glo); assay type: cell-based; conditions: Homo sapiens, 72 hr treatment
Protocol: as §1, §2

[6] = target: T1, Recombinant Human NF-kappaB-Inducing Kinase (NIK/MAP3K14); experiment: Biological Assay A2: inhibition of auto-phosphorylation of recombinant human NIK/MAP3K14 (AlphaScreen); assay type: biochemical; conditions: 25 microM ATP, 0.2 nM NIK/MAP3K14, 1 h at 25° C., averaged over all batches, read-out: Alpha-Screen IC50
Protocol: Inhibition of Auto-Phosphorylation of Recombinant Human NF-kappaB-Inducing Kinase (NIKIMAP3K14) Activity (AlphaScreen®)
NIK/MAP3K14 auto-phosphorylation activity was measured using the AlphaScreen® (ascreen) format (Perkin Elmer). All compounds tested were dissolved in dimethyl sulfoxide (DMSO) and further dilutions were made in assay buffer. Final DMSO concentration was 1% (v/v) in assays. Assay buffer was 50 mM Tris pH 7.5 containing 1 mM EGTA (ethylene glycol tetraacetic acid), 1 mM DTT (dithiothreitol), 0.1 mM Na3VO4, 5 mM MgCl2, 0.01% Tween® 20. Assays were carried out in 384 well Alphaplates (Perkin Elmer). Incubations consisted of compound, 25 microM Adenosine-5′-triphosphate (ATP), and 0.2 nM NIK/MAP3K14. Incubations were initiated by addition of GST-tagged NIK/MAP3K14 enzyme, carried out for 1 h at 25° C. and terminated by addition of stop buffer containing anti-phospho-IKK Ser176/180 antibody. Protein A Acceptor and Glutathione-Donor beads were added before reading using an EnVision® Multilabel Plate Reader (Perkin Elmer). Signal obtained in the wells containing blank samples was subtracted from all other wells and IC50's were determined by fitting a sigmoidal curve to % inhibition of control versus Log10 compound concentration.

T1 sequence (Q99558 whole entry): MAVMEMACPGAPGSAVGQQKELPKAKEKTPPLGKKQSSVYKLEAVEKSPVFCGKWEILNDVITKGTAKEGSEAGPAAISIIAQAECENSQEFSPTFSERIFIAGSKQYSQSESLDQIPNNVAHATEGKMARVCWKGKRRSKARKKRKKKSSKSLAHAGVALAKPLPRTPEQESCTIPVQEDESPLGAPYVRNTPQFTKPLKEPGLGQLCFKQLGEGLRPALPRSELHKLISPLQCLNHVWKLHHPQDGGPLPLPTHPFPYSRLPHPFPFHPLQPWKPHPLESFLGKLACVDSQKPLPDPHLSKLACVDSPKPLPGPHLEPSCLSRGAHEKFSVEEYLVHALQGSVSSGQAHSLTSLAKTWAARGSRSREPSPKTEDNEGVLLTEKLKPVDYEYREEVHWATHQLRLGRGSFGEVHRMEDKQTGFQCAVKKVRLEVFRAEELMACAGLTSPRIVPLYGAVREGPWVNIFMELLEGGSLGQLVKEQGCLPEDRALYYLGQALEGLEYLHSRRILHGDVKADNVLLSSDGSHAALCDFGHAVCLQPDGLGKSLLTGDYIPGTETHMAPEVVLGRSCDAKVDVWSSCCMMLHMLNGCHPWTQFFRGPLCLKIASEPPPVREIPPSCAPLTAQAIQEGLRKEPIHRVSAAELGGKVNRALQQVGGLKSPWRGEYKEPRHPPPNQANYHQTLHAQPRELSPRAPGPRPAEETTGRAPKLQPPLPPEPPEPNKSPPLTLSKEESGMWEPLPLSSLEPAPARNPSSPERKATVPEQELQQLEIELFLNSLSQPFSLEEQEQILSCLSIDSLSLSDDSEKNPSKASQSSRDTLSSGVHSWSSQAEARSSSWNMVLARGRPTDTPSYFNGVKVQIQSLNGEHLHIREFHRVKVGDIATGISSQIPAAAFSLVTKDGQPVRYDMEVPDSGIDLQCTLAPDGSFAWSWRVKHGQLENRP

IC50 [3] [nM] | IC50 [4] [nM] | IC50 [6] [nM] | SMILES | EC50 [1] [µM] | EC50 [2] [nM] | EC50 [5] [nM]
98 | 781 | 54 | CC(C)(O)C#Cc1cc2c(cn1)c(C#N)cn2-c1ccnc(N)n1 [Compound 19] | 4.66 | 1840 | 1450
3.9 | 28 | 5.5 | CC(C)(O)C#Cc1cc2c(cn1)c(CCCO)cn2-c1ccnc(N)n1 [Compound 28] | 4.44 | 215 | 162
6.9 | 38 | 17 | Nc1ncc(F)c(-n2cc(CCCO)c3cnc(C#CC4(O)CCCC4)cc32)n1 [Compound 30] | 4.05 | 1690 | 913
19 | 32 | 24 | CC(C)(O)C#Cc1cc2c(cn1)c(CCCO)cn2-c1nc(N)ncc1F [Compound 29] | 3.48 | 277 | 298

More lines, now with the values behind:

SMILES | IC50 [3] [nM] | IC50 [4] [nM] | IC50 [6] [nM] | EC50 [1] [µM] | EC50 [2] [nM] | EC50 [5] [nM]
COCCc1cn(-c2ccnc(N)n2)c2cc(C#CC(C)(C)O)ncc12 [Compound 27] | 31 | 48 | 33 | 0.448 | 194 | 145
CN(C)C(=O)c1cn(-c2ccnc(N)n2)c2cc(C#CC(C)(C)O)ncc12 [Compound 2] | 73 | 1060 | 180 | > 30 | 5030 | 3320
Nc1nccc(-n2ccc3cnc(C#CC4(O)CC4)cc32)n1 [Compound 4] | 3.9 | 7.3 | 5.6 | 0.122 | 62 | 56
CC(CO)c1cn(-c2ccnc(N)n2)c2cc(C#CC(C)(C)O)ncc12 (stereo not drawn) [Compound 16] | 20 | 56 | 6.7 | 6.12 | 354 | 157
